Laboratory results: US20100216779A1 (GLAXOSMITHKLINE LLC, priority 2007, published 2010)

How the values were obtained:
Type in all cases: cell-based
[1] = target: T1, IR (NIH-3T3 cells over expressing human IGF-1R or IR) (Homo sapiens, UniProt P06213); test: IR cellular autophosphorylation (DELFIA); details: NIH-3T3 cells over expressing IR, insulin stimulated
T1 construct: expressed in transfected cells; host or cells: NIH-3T3 (mouse fibroblasts)
In short: (§1)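 Readout: DELFIA on lysates, with anti-IGF-1R or anti-IR capture and europium anti-pTyr detection, expressed relative to 100% ligand-stimulated signal. Human IGF-1R- or IR-overexpressing NIH-3T3 cells got compound (1.5 nM–30 uM) for 2 h before 15 min IGF-1 (30 ng/mL) or insulin (3 ug/mL).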

COLO205 (colon) = test: Inhibition of cell proliferation, CellTiter-Glo, COLO205; details: Homo sapiens, COLO 205, 72 h
In short: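 Exponentially growing COLO205 cells in medium with 10% FBS were plated below 2000 cells/well at 37 °C, 5% CO2. Untreated wells served as controls.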

[2] = test system: NCI-H929 (multiple myeloma); test: Inhibition of cell proliferation, CellTiter-Glo, NCI-H929; details: Homo sapiens, 72 h
Method: C. Inhibition of Cell Proliferation
Cell proliferation was measured by either CellTiter-Glo (measures cellular ATP level as a surrogate for total cell number) or by InCell analyzer (counts number of nuclei as a measure of cell number). For CellTiter-Glo assay, exponentially growing cell lines of different tumor origins, cultured in appropriate media containing 10% fetal bovine serum at 37° C. in a 5% CO2 incubator, were plated at low density (less than 2000 cells/well) in 96-well plates. Twenty four hours post-plating, cells were treated with different concentrations of test compounds ranging from 30 uM to 1.5 nM. Several wells were left untreated as a control. Seventy two hours post-treatment, cell numbers were determined using 50-100 ul per well of CellTiter-Glo (Promega #G7573). Plates were incubated at 37° C. for 30 minutes and the chemiluminescent signal was read on the Victor V or Envison 2100 reader. […]

[3] = target: T2, human IGF-1R (NIH-3T3 cells over expressing human IGF-1R) (Homo sapiens, UniProt P08069); test: IGF-1R cellular autophosphorylation (DELFIA); details: IGF-1 stimulated
T2 construct: expressed in transfected cells; host or cells: NIH-3T3 (mouse fibroblasts)
In short: as §1

T1 sequence (P06213 28-1382): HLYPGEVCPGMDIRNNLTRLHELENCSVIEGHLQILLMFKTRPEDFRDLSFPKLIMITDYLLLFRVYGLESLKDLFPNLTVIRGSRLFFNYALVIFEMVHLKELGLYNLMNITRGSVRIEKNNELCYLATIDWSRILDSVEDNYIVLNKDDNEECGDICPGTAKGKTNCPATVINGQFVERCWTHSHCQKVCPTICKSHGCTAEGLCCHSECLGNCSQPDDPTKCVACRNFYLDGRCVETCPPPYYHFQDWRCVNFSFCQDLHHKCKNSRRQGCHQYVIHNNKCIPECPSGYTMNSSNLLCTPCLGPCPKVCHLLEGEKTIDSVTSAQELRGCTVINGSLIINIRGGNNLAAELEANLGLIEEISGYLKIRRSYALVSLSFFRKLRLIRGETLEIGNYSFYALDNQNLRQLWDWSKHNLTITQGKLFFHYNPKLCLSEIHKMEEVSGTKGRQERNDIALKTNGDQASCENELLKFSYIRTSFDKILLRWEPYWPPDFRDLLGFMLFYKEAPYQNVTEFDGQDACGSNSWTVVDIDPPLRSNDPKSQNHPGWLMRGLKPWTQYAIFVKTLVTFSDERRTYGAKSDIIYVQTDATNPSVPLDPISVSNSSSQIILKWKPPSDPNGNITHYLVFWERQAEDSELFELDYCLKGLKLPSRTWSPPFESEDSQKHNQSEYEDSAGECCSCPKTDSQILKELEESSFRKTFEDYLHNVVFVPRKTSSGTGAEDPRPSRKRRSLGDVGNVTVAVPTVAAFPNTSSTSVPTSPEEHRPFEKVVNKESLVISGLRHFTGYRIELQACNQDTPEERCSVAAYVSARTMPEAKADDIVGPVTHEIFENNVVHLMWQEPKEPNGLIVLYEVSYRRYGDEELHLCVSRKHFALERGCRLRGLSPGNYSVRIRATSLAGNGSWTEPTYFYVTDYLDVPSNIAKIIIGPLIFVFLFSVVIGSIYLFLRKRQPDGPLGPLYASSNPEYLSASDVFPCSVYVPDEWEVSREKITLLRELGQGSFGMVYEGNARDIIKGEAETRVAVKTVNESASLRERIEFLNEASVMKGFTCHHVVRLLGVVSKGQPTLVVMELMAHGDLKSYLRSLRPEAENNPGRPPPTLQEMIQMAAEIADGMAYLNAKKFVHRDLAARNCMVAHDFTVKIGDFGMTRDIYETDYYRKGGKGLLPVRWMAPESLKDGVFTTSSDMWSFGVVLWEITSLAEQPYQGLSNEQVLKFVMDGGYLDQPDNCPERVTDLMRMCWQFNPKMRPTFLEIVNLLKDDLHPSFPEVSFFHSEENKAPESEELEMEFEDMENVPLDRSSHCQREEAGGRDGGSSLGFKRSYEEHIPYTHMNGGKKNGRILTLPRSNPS
T2 sequence (P08069 31-1367): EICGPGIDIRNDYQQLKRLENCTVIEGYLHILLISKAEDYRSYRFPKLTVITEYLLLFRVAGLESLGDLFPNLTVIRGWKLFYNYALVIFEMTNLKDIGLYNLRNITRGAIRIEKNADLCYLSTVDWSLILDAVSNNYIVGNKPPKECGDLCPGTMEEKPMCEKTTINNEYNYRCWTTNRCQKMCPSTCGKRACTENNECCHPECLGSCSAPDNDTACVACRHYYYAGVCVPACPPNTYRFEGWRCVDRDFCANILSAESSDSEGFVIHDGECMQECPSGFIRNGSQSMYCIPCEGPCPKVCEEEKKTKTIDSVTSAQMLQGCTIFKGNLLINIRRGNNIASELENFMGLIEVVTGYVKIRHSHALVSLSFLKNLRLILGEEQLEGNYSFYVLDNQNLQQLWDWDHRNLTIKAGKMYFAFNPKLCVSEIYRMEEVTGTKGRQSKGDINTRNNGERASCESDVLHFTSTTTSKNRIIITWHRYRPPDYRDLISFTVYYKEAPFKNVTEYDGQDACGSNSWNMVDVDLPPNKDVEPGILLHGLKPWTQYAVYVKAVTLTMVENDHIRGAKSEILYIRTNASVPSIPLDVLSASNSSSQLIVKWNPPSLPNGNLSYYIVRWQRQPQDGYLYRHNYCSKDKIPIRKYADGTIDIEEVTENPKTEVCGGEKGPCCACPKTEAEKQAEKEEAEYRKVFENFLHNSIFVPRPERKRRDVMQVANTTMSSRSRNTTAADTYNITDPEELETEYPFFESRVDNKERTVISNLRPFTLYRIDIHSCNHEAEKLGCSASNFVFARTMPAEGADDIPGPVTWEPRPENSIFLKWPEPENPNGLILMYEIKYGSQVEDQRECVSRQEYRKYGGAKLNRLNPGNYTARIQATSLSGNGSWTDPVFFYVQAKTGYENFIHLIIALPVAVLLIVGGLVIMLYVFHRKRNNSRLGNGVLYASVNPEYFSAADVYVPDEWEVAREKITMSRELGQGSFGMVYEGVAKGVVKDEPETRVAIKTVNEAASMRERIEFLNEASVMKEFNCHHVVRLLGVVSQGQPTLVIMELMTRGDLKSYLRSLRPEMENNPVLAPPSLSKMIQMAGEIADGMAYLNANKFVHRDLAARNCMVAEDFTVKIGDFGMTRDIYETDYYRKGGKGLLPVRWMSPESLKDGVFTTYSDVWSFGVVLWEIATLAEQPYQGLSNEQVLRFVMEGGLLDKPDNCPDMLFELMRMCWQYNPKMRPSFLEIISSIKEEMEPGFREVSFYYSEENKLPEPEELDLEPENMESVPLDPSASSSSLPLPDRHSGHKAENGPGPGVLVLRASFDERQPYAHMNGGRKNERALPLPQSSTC

Compound | IC50 [1] [nM] | IC50 (COLO205 (colon)) [nM] | IC50 [2] [nM] | IC50 [3] [nM]
COc1cc(N2CCC(N3CCC(C(F)(F)F)CC3)CC2)ccc1Nc1nccc(-c2c(-c3cccc(C(=O)Nc4c(F)cccc4F)c3)nc3ccccn23)n1 [Example 52, N-(2,6-difluorophenyl)-3-{3-[2-({2-(methyloxy)-4-[4-(trifluoromethyl)-1,4′-bipiperidin-1′-yl]phenyl}amino)-4-pyrimidinyl]imidazo[1,2-a]pyridin-2-yl}benzamide] | 100 to 500 | 250 to 1000 | 250 to 1000 | < 100
COc1cc(C2CCN(CC(C)C)CC2)ccc1Nc1nccc(-c2c(-c3cccc(C(=O)Nc4c(F)cccc4F)c3)nc3ccccn23)n1 [Example 162, N-(2,6-difluorophenyl)-3-{3-[2-({2-(methyloxy)-4-[1-(2-methylpropyl)-4-piperidinyl]phenyl}amino)-4-pyrimidinyl]imidazo[1,2-a]pyridin-2-yl}benzamide] | < 100 | 250 to 1000 | < 250 | < 100
CCCN1CCC(c2cc(OC)c(Nc3nccc(-c4c(-c5ccc(OCC)c(C(=O)Nc6c(F)cccc6F)c5)nc5ccccn45)n3)cc2C)CC1 [Example 158, N-(2,6-difluorophenyl)-2-(ethyloxy)-5-[3-(2-{[5-methyl-2-(methyloxy)-4-(1-propyl-4-piperidinyl)phenyl]amino}-4-pyrimidinyl)imidazo[1,2-a]pyridin-2-yl]benzamide] | < 100 | < 250 | < 250 | < 100
CCOc1cc(C2CCN(CCS(C)(=O)=O)CC2)ccc1Nc1nccc(-c2c(-c3ccc(OCC)c(C(=O)Nc4c(F)cccc4F)c3)nc3ccccn23)n1 [Example 185, N-(2,6-difluorophenyl)-2-(ethyloxy)-5-(3-{2-[(2-(ethyloxy)-4-{1-[2-(methylsulfonyl)ethyl]-4-piperidinyl}phenyl)amino]-4-pyrimidinyl}imidazo[1,2-a]pyridin-2-yl)benzamide] | < 100 | < 250 | < 250 | < 100
CCCc1cc(C2CCN(CCS(C)(=O)=O)CC2)ccc1Nc1nccc(-c2c(-c3ccc(OCC)c(C(=O)Nc4c(F)cccc4F)c3)nc3ccccn23)n1 [Example 168, N-(2,6-difluorophenyl)-2-(ethyloxy)-5-(3-{2-[(4-{1-[2-(methylsulfonyl)ethyl]-4-piperidinyl}-2-propylphenyl)amino]-4-pyrimidinyl}imidazo[1,2-a]pyridin-2-yl)benzamide] | < 100 | 250 to 1000 | < 250 | < 100
COc1cc(N2CCC(N3CCC(CCS(C)(=O)=O)CC3)CC2)ccc1Nc1nccc(-c2c(-c3cccc(C(=O)Nc4c(F)cccc4F)c3)nc3ccccn23)n1 [Example 101, N-(2,6-difluorophenyl)-3-(3-{2-[(2-(methyloxy)-4-{4-[2-(methylsulfonyl)ethyl)-1,4′-bipiperidin-1′-yl]phenyl)amino]-4-pyrimidinyl}imidazo[1,2-a]pyridin-2-yl)benzamide] | < 100 | 250 to 1000 | < 250 | < 100
CCN1CCN(C2CCN(c3ccc(Nc4nccc(-c5c(-c6cccc(C(=O)Nc7c(F)cccc7F)c6)nc6ccccn56)n4)c(OC)c3)CC2)CC1 [Example 64, N-(2,6-difluorophenyl)-3-[3-(2-{[4-[4-(4-ethyl-1-piperazinyl)-1-piperidinyl]-2-(methyloxy)phenyl]amino}-4-pyrimidinyl)imidazo[1,2-a]pyridin-2-yl]benzamide] | < 100 | 250 to 1000 | < 250 | 100 to 500
CCCN1CCC(c2cc(OC)c(Nc3nccc(-c4c(-c5ccc(OC)c(C(=O)Nc6c(F)cccc6F)c5)nc5ccccn45)n3)cc2C)CC1 [Example 157, N-(2,6-difluorophenyl)-5-[3-(2-{[5-methyl-2-(methyloxy)-4-(1-propyl-4-piperidinyl)phenyl]-amino}-4-pyrimidinyl)imidazo[1,2-a]pyridin-2-yl]-2-(methyloxy)benzamide] | < 100 | < 250 | < 250 | < 100
CCCc1cc(C2CCN(CCS(C)(=O)=O)CC2)ccc1Nc1nccc(-c2c(-c3cccc(C(=O)Nc4c(F)cccc4F)c3)nc3ccccn23)n1 [Example 166, N-(2,6-difluorophenyl)-3-(3-{2-[(4-{1-[2-(methylsulfonyl)ethyl]-4-piperidinyl}-2-propylphenyl)amino]-4-pyrimidinyl}imidazo[1,2-a]pyridin-2-yl)benzamide] | 100 to 500 | 250 to 1000 | 250 to 1000 | < 100
CN(C)CCOc1cccc(Nc2nccc(-c3c(-c4cccc(C(=O)Nc5c(F)cc(F)cc5F)c4)nc4ccccn34)n2)c1 [Example 12, 3-(3-{2-[(3-{[2-(dimethylamino)ethyl]oxy}phenyl)amino]-4-pyrimidinyl}imidazo[1,2-a]pyridin-2-yl)-N-(2,4,6-trifluorophenyl)benzamide] | – | 250 to 1000 | < 250 | 100 to 500

Now from value to compound:

IC50 [1] [nM] | IC50 (COLO205 (colon)) [nM] | IC50 [2] [nM] | IC50 [3] [nM] | Compound
< 100 | 250 to 1000 | < 250 | < 100 | CCOc1cc(N2CCC(N3CCN(S(C)(=O)=O)CC3)CC2)ccc1Nc1nccc(-c2c(-c3cccc(C(=O)Nc4c(F)cccc4F)c3)nc3ccccn23)n1 [Example 224, N-(2,6-difluorophenyl)-3-(3-{2-[(2-(ethyloxy)-4-{4-[4-(methylsulfonyl)-1-piperazinyl]-1-piperidinyl}phenyl)amino]-4-pyrimidinyl}imidazo[1,2-a]pyridin-2-yl)benzamide]
< 100 | 250 to 1000 | < 250 | < 100 | COc1cc(N2CCC(N3CCN(S(C)(=O)=O)CC3)CC2)ccc1Nc1nccc(-c2c(-c3ccc(OC)c(C(=O)Nc4c(F)cccc4F)c3)nc3cc(F)ccn23)n1 [Example 199, N-(2,6-difluorophenyl)-5-(7-fluoro-3-{2-[(2-(methyloxy)-4-{4-[4-(methylsulfonyl)-1-piperazinyl]-1-piperidinyl}phenyl)amino]-4-pyrimidinyl}imidazo[1,2-a]pyridin-2-yl)-2-(methyloxy)benzamide]
100 to 500 | 250 to 1000 | 250 to 1000 | < 100 | COc1cc(N2CCC(N3CCCCC3)CC2)ccc1Nc1nccc(-c2c(-c3cccc(C(=O)Nc4c(F)cccc4F)c3)nc3c(F)cccn23)n1 [Example 190, 3-[3-(2-{[4-(1,4′-bipiperidin-1-yl)-2-(methyloxy)phenyl]amino}-4-pyrimidinyl)-8-fluoroimidazo[1,2-a]pyridin-2-yl]-N-(2,6-difluorophenyl)benzamide]
< 100 | 250 to 1000 | 250 to 1000 | < 100 | COCCN1CCN(c2ccc(Nc3nccc(-c4c(-c5cccc(C(=O)Nc6c(F)cccc6F)c5)nc5ccccn45)n3)c(OC)c2)CC1 [Example 240, N-(2,6-difluorophenyl)-3-(3-{2-[(2-(methyloxy)-4-{4-[2-(methyloxy)ethyl]-1-piperazinyl}phenyl)amino]-4-pyrimidinyl}imidazo[1,2-a]pyridin-2-yl)benzamide]
< 100 | 250 to 1000 | < 250 | < 100 | COc1cc(N2CCC(CCS(C)(=O)=O)CC2)ccc1Nc1nccc(-c2c(-c3ccc(OC)c(C(=O)Nc4c(F)cccc4F)c3)nc3ccccn23)n1 [Example 201, N-(2,6-difluorophenyl)-2-(methyloxy)-5-(3-{2-[(2-(methyloxy)-4-{4-[2-(methylsulfonyl)ethyl]-1-piperidinyl}phenyl)amino]-4-pyrimidinyl}imidazo[1,2-a]pyridin-2-yl)benzamide]
< 100 | 250 to 1000 | 250 to 1000 | < 100 | CCc1cc(Nc2nccc(-c3c(-c4cccc(C(=O)Nc5c(F)cccc5F)c4)nc4ccccn34)n2)c(OC)cc1N1CCC(N2CCN(S(C)(=O)=O)CC2)CC1 [Example 244, N-(2,6-difluorophenyl)-3-(3-{2-[(5-ethyl-2-(methyloxy)-4-{4-[4-(methylsulfonyl)-1-piperazinyl]-1-piperidinyl}phenyl)amino]-4-pyrimidinyl}imidazo[1,2-a]pyridin-2-yl)benzamide]
< 100 | – | < 250 | < 100 | COc1cc(N2CCC(CCS(C)(=O)=O)CC2)c(C)cc1Nc1nccc(-c2c(-c3cccc(C(=O)Nc4c(F)cccc4F)c3)nc3ccccn23)n1 [Example 231, N-(2,6-difluorophenyl)-3-(3-{2-[(5-methyl-2-(methyloxy)-4-{4-[2-(methylsulfonyl)ethyl]-1-piperidinyl}phenyl)amino]-4-pyrimidinyl}imidazo[1,2-a]pyridin-2-yl)benzamide]
